# Where two headings read alike, the source gives them in different places. Where a SMILES comes first, the peptide text is derived from it. [ ]: non-standard residue; d: D form. ξ: configuration not given here. Oic = O=C(O)[C@@H]1C[C@@H]2CCCC[C@@H]2N1; Tic = O=C(O)[C@@H]1Cc2ccccc2CN1; ξTic = O=C(O)C1Cc2ccccc2CN1; ξOic = O=C(O)C1CC2CCCCC2N1; βAla = NCCC(=O)O
# Experiments:
# [1] = test system: red blood cells
# [2] = in vitro; conditions: mouse, microsomes, pH 7.4
# [3] = in vitro; conditions: monkey, microsomes, pH 7.4
# [4] = in vitro; conditions: human, microsomes, pH 7.4
# [5] = Maximum tolerated dose in mouse model; type: in vivo; conditions: IP, dosed daily day 1-6
# Protocol: Maximum Tolerated Dose: Six compounds were evaluated in an in vivo mouse model to determine the maximum tolerated dose for each compound by BIOCON, Inc. using the following protocol. For each compound 3 dose concentrations (1/5/25 mg/kg or 5/25/125 mg/kg) were administered IP, 1-2 times per day as split doses. Day 0 weigh the animals, day 1-6 dose daily and observe animals, day 7 weigh, euthanasia followed by necrotize to examine abdominal cavity.
# [6] = in vitro; conditions: rat, microsomes, pH 7.4
# [7] = in vitro; conditions: dog, microsomes, pH 7.4
# [8] = test system: Staphylococcus aureus Methicillin/Gentamicin/Tetracycline Resistant (ATCC 33592); conditions: for Minimum Inhibitory Concentration Staphylococcus aureus ME/GM/TC resistant: in vitro MIC, tested at 100, 30, 10, 3, 1, 0.3 and 0.1 μM in 1% DMSO; for p(MIC) Staphylococcus aureus ME/GM/TC resistant: -log(MIC); for Actual Bioactivity: p(MIC) used in Staphylococcus aureus QSAR model
# [9] = test system: Bacillus subtillis (ATCC 43223); conditions: for MIC Bacillus Subtillis: ATCC 43223
# [10] = test system: Mycobacterium ranae (ATCC 110)
# [11] = test system: Salmonella typhimurium (ATCC 13311); conditions: for MIC Salmonella typhimurium: ATCC 13311; for p(MIC) Salmonella typhimurium: -log(MIC)
# [12] = Metabolic stability, monkey liver microsomes
# [13] = test system: B. melitensis 16M
# [14] = Metabolic stability, rat liver microsomes
# [15] = test system: F. tularensis SCHU-S4
# [16] = Metabolic stability, dog liver microsomes
# [17] = Metabolic stability, human liver microsomes; conditions: for % remaining at time T, Human Liver: 0.5 mg/mL microsomes
# [18] = Metabolic stability, mouse liver microsomes
# [19] = test system: red blood cells; assay: Hemolytic studies; conditions: for % hemolysis / Hemolytic activity: concentration not given
# [20] = test system: Plasmodium falciparum W2 (CDC Indochina III chloroquine, quinine, pyrimethamine and sulfadoxine-resistant)
# [21] = test system: Plasmodium falciparum D6 (CDC Sierra Leone, mefloquine resistant)
# [22] = Minimal Inhibitory Concentration, tested at 100-0.1 in 1% DMSO
# [23] = liver microsomes, 1 μM, T = 60 min
structure (smiles),measurement,setting,value
"CC(C)C[C@H](NC(=O)[C@@H](N)CCCCN)C(=O)N1Cc2ccccc2CC1C(=O)N1C(C(=O)NCC(=O)N[C@@H](CCCCN)C(=O)N2Cc3ccccc3CC2C(=O)N2C(C(=O)NCC(=O)N[C@@H](Cc3ccccc3)C(=O)N3Cc4ccccc4CC3C(=O)N3C(C(=O)NCC(=O)N[C@@H](CCCCN)C(=O)N4Cc5ccccc5CC4C(=O)N[C@@H](CCCCN)C(=O)N[C@@H](CCCCN)C(=O)N[C@@H](CCCCN)C(=O)N[C@@H](CCCCN)C(N)=O)CC4CCCCC43)CC3CCCCC32)CC2CCCCC21 (stereo partly drawn) [FKAB-1Gb, NH2--KL-Tic-Oic-GK-Tic-Oic-GF-Tic-Oic-GK-Tic-KKKK-CONH2] (H-KL[ξTic][ξOic]GK[ξTic][ξOic]GF[ξTic][ξOic]GK[ξTic]KKKK-NH2)",% hemolysis 100/25 μM (first value),[1],43.6%/
same,% hemolysis 100/25 μM (second value),[1],24.9%
same,"remaining at 0.25 h, 1 μM",[2],87%
same,"remaining at 0.5 h, 1 μM",[2],73%
same,"remaining at 1 h, 1 μM",[2],70%
same,"remaining at 0.25 h, 1 μM",[3],86%
same,"remaining at 0.5 h, 1 μM",[3],87%
same,"remaining at 1 h, 1 μM",[3],97%
same,"remaining at 0.25 h, 1 μM",[4],98%
same,Maximum Tolerated Dose/Toxicity 1 mg/kg,[5],no observed toxicity
same,"remaining at 0.25 h, 1 μM",[6],84%
same,"remaining at 0.5 h, 1 μM",[6],84%
same,"remaining at 1 h, 1 μM",[6],91%
same,"remaining at 0.5 h, 1 μM",[7],99%
same,"remaining at 1 h, 1 μM",[7],81%
same,MIC Staphylococcus aureus ME/GM/TC resistant,[8]; [22],0.03 mM
same,Minimum Inhibitory Concentration Staphylococcus aureus ME/GM/TC resistant,[8],30 µM
same,MIC Bacillus Subtillis,[9],0.001 mM
same,MIC Mycobacterium ranae,[10]; ATCC 110,0.003 mM
same,Minimum Inhibitory Concentration Mycobacterium ranae,[10]; ATCC 110,3 µM
same,MIC Salmonella typhimurium,[11],0.003 mM
"CC(=O)NCCC(=O)N[C@@H](Cc1ccccc1)C(=O)N1Cc2ccccc2CC1C(=O)N1C(C(=O)NCCC(=O)N[C@@H](CCCCN)C(=O)N2Cc3ccccc3CC2C(=O)N2C(C(=O)NCCC(=O)N[C@@H](Cc3ccccc3)C(=O)N3Cc4ccccc4CC3C(=O)N3C(C(=O)NCCC(=O)N[C@@H](CCCCN)C(=O)N4Cc5ccccc5CC4C(=O)N[C@@H](CCCCN)C(=O)N[C@@H](CCCCN)C(=O)N[C@@H](CCCCN)C(=O)N[C@@H](CCCCN)C(N)=O)CC4CCCCC43)CC3CCCCC32)CC2CCCCC21 (stereo partly drawn) [FKAB-1Gd1, Ac-βAla-F-Tic-Oic-βAla-K-Tic-Oic-βAla-F-Tic-Oic-βAla-K-Tic-KKKK-CONH2] (Ac-[βAla]F[ξTic][ξOic][βAla]K[ξTic][ξOic][βAla]F[ξTic][ξOic][βAla]K[ξTic]KKKK-NH2)",metabolic stability T = 60 min monkey,[12]; [23],high
same,"remaining at 0.25 h, 1 μM","[12]; monkey, microsomes, pH 7.4",90%
same,"remaining at 0.5 h, 1 μM","[12]; monkey, microsomes, pH 7.4",87%
same,"remaining at 1 h, 1 μM","[12]; monkey, microsomes, pH 7.4",89%
same,Minimum Inhibitory Concentration B. melitensis 16M,[13],>500 µg/mL
same,metabolic stability T = 60 min rat,[14]; [23],high
same,"remaining at 0.25 h, 1 μM","[14]; rat, microsomes, pH 7.4",82%
same,"remaining at 0.5 h, 1 μM","[14]; rat, microsomes, pH 7.4",79%
same,"remaining at 1 h, 1 μM","[14]; rat, microsomes, pH 7.4",92%
same,Maximum Tolerated Dose/Toxicity 125 mg/kg,[5]; 125 mg/kg,5 out 5 animals died
same,Minimum Inhibitory Concentration F. tularensis SCHU-S4,[15],500 µg/mL
same,"% remaining, Dog Liver T = 15","[16]; T = 15 min, 1 μM, 0.5 mg/mL microsomes",84%
same,"remaining at 0.5 h, 1 μM","[16]; dog, microsomes, pH 7.4",78%
same,"remaining at 1 h, 1 μM","[16]; dog, microsomes, pH 7.4",71%
same,metabolic stability T = 60 min dog,[16]; [23],Moderate
same,"remaining at 0.25 h, 1 μM","[17]; human, microsomes, pH 7.4",94%
same,metabolic stability T = 60 min human,[17]; [23],high
same,"% remaining at time T, Human Liver","[17]; second human column (T = 30 min, head not given), 1 μM",99%
same,"% remaining at time T, Human Liver","[17]; third human column (T = 60 min, head not given), 1 μM",97%
same,metabolic stability T = 60 min mouse,[18]; [23],moderate
same,"remaining at 0.25 h, 1 μM","[18]; mouse, microsomes, pH 7.4",90%
same,"remaining at 0.5 h, 1 μM","[18]; mouse, microsomes, pH 7.4",64%
same,"remaining at 1 h, 1 μM","[18]; mouse, microsomes, pH 7.4",53%
same,% hemolysis 100/25 μM (first value),[19]; 100 μM,24.4%/
same,MIC Staphylococcus aureus ME/GM/TC resistant,[8]; ATCC 33592,0.01 mM
same,MIC Bacillus Subtillis,[9],0.001 mM
same,MIC Mycobacterium ranae,[10]; ATCC 110,0.001 mM
same,Minimum Inhibitory Concentration Mycobacterium ranae,[10]; ATCC 110,1 µM
same,MIC Salmonella typhimurium,[11],0.01 mM
"CC(=O)NCC(=O)N1Cc2ccccc2CC1C(=O)N1C(C(=O)N[C@@H](CCCCN)C(=O)N2Cc3ccccc3CC2C(=O)N2C(C(=O)NCC(=O)N3Cc4ccccc4CC3C(=O)N3C(C(=O)N[C@@H](CCCCN)C(=O)N4Cc5ccccc5CC4C(=O)N[C@@H](CCCCN)C(=O)N[C@@H](CCCCN)C(=O)N[C@@H](CCCCN)C(=O)N[C@@H](CCCCN)C(N)=O)CC4CCCCC43)CC3CCCCC32)CC2CCCCC21 (stereo partly drawn) [FKAB-1Ge, Ac-G-Tic-Oic-K-Tic-Oic-G-Tic-Oic-K-Tic-KKKK-CONH2] (Ac-G[ξTic][ξOic]K[ξTic][ξOic]G[ξTic][ξOic]K[ξTic]KKKK-NH2)",% hemolysis 100/25 μM (first value),[1],26.7%/
same,% hemolysis 100/25 μM (second value),[1],9.2%
same,"remaining at 0.25 h, 1 μM",[2],85%
same,"remaining at 0.5 h, 1 μM",[2],20%
same,"remaining at 1 h, 1 μM",[2],11%
same,"remaining at 0.25 h, 1 μM",[3],56%
same,"remaining at 0.5 h, 1 μM",[3],73%
same,"remaining at 0.25 h, 1 μM",[4],114%
same,Maximum Tolerated Dose/Toxicity 1 mg/kg,[5],no observed toxicity
same,"remaining at 0.25 h, 1 μM",[6],69%
same,"remaining at 0.5 h, 1 μM",[6],73%
same,"remaining at 1 h, 1 μM",[6],95%
same,"remaining at 0.5 h, 1 μM",[7],43%
same,"remaining at 1 h, 1 μM",[7],54%
same,MIC Staphylococcus aureus ME/GM/TC resistant,[8]; [22],0.01 mM
same,Minimum Inhibitory Concentration Staphylococcus aureus ME/GM/TC resistant,[8],10 µM
same,MIC Bacillus Subtillis,[9],0.001 mM
same,MIC Mycobacterium ranae,[10]; ATCC 110,0.003 mM
same,MIC Salmonella typhimurium,[11],0.01 mM
"CC(C)C[C@H](NC(=O)CNC(=O)[C@H](CCCCN)NC(=O)CN)C(=O)N1Cc2ccccc2C[C@H]1C(=O)N1[C@H](C(=O)NCC(=O)N[C@@H](CCCNC(=N)N)C(=O)N2Cc3ccccc3C[C@H]2C(=O)N2[C@H](C(=O)NCC(=O)N[C@@H](Cc3ccccc3)C(=O)N3Cc4ccccc4C[C@H]3C(=O)N3[C@H](C(=O)NCC(=O)N[C@@H](CCCNC(=N)N)C(=O)N4Cc5ccccc5C[C@H]4C(=O)N4[C@H](C(=O)NCC(=O)N[C@@H](Cc5ccccc5)C(=O)N5Cc6ccccc6C[C@H]5C(=O)N5[C@H](C(=O)NCC(=O)N[C@@H](CCCNC(=N)N)C(=O)N6Cc7ccccc7C[C@H]6C(=O)N6[C@H](C(=O)NCC(=O)N[C@@H](CCCCN)C(=O)N[C@@H](CCCNC(=N)N)C(N)=O)C[C@@H]7CCCC[C@@H]76)C[C@@H]6CCCC[C@@H]65)C[C@@H]5CCCC[C@@H]54)C[C@@H]4CCCC[C@@H]43)C[C@@H]3CCCC[C@@H]32)C[C@@H]2CCCC[C@@H]21 [WRFK-2, NH2-GKGL-Tic-Oic-GR-Tic-Oic-GF-Tic-Oic-GR-Tic-Oic-GF-Tic-Oic-GR-Tic-Oic-GKR-CONH2] (H-GKGL[Tic][Oic]GR[Tic][Oic]GF[Tic][Oic]GR[Tic][Oic]GF[Tic][Oic]GR[Tic][Oic]GKR-NH2)",IC50 * W2,[20],6.9 µg/mL
same,IC50 * D6,[21],7.2 µg/mL
same,% hemolysis / Hemolytic activity,[19],100%
same,p(MIC) Staphylococcus aureus ME/GM/TC resistant,[8],5.00
same,MIC Staphylococcus aureus ME/GM/TC resistant,[8]; [22],0.01 mM
same,Minimum Inhibitory Concentration Staphylococcus aureus ME/GM/TC resistant,[8],10 µM
same,Actual Bioactivity,[8],5.000
same,p(MIC) Bacillus Subtillis,[9]; -log(MIC),6.00
same,MIC Bacillus Subtillis,[9],0.001 mM
same,Actual Bioactivity,[10],0.000
same,MIC Mycobacterium ranae,[10],1000 mM
same,Minimum Inhibitory Concentration Mycobacterium ranae,[10],not active
same,p(MIC) Salmonella typhimurium,[11],4.00
same,MIC Salmonella typhimurium,[11],0.1 mM
"CC(C)C[C@H](NC(=O)CNC(=O)[C@H](CCCCN)NC(=O)CN)C(=O)N1Cc2ccccc2C[C@H]1C(=O)N1[C@H](C(=O)NCC(=O)N[C@@H](CCCCN)C(=O)N2Cc3ccccc3C[C@H]2C(=O)N2[C@H](C(=O)NCC(=O)N[C@@H](CC(C)C)C(=O)N3Cc4ccccc4C[C@H]3C(=O)N3[C@H](C(=O)NCC(=O)N[C@@H](CCCCN)C(=O)N4Cc5ccccc5C[C@H]4C(=O)N4[C@H](C(=O)NCC(=O)N[C@@H](CC(C)C)C(=O)N5Cc6ccccc6C[C@H]5C(=O)N5[C@H](C(=O)NCC(=O)N[C@@H](CCCCN)C(=O)N6Cc7ccccc7C[C@H]6C(=O)N6[C@H](C(=O)NCC(=O)N[C@@H](CCCCN)C(=O)N[C@@H](CCCNC(=N)N)C(N)=O)C[C@@H]7CCCC[C@@H]76)C[C@@H]6CCCC[C@@H]65)C[C@@H]5CCCC[C@@H]54)C[C@@H]4CCCC[C@@H]43)C[C@@H]3CCCC[C@@H]32)C[C@@H]2CCCC[C@@H]21 [WRFK-4, NH2-GKGL-Tic-Oic-GK-Tic-Oic-GL-Tic-Oic-GK-Tic-Oic-GL-Tic-Oic-GK-Tic-Oic-GKR-CONH2] (H-GKGL[Tic][Oic]GK[Tic][Oic]GL[Tic][Oic]GK[Tic][Oic]GL[Tic][Oic]GK[Tic][Oic]GKR-NH2)",IC50 * W2,[20],6.5 µg/mL
same,IC50 * D6,[21],7.8 µg/mL
same,% hemolysis / Hemolytic activity,[19],100%
same,p(MIC) Staphylococcus aureus ME/GM/TC resistant,[8],5.00
same,Actual Bioactivity,[8],5.000
same,p(MIC) Salmonella typhimurium,[11],4.00
same,MIC Salmonella typhimurium,[11],0.1 mM

# — US20120197004A1, “NOVEL ANTI-MICROBIAL PEPTIDOMIMETIC COMPOUNDS AND METHODS TO CALCULATE ANTI-MICROBIAL ACTIVITY” (priority 2006, published 2012)
